Experimental data as given in PMC9475448, “What a difference a methylene makes: replacing Glu with Asp or Aad in the Lys-urea-Glu pharmacophore of PSMA-targeting radioligands to reduce kidney and salivary gland uptake” (Theranostics, 2022).
“Also recorded” adds a separate entry of the source. Where two headings read alike, the source gives them in different places.

Tests used:
[1] = tested on: LNCaP tumor and major mouse organs/tissues; test: Radiation dosimetry calculation with OLINDA software from biodistribution data; details: 25-g mouse
Text: The biodistribution data (available in the Supplemental Table s 5- 6) were used to determine the kinetics input values required by OLINDA. First, each of the values was decayed to its corresponding time point (the values on the table are shown at injection time). Then the different time-points of the uptake data (%IA/g) for each organ were fitted to both mono- exponential ( ) and bi-exponential ( ) functions using in-house software developed in Python. The best fit was selected based on maximizing the coefficient of determination (R2) of the fit and minimizing the residuals. The areas under the curves were analytically calculated based on the parameters obtained from the best fit of each organ and this provided the kinetic input values required by OLINDA.
In the mouse case, the adrenals, blood, fat, and muscle are not modeled in the phantom. These organs were grouped together and included in what OLINDA calls the remainder of the body .
Lastly, the numbers of decays in the tumors were also calculated based on the biodistribution data of the mice and the values were inputted into the sphere model available in OLINDA.

LNCaP tumor-bearing mice [2] = test: Longitudinal SPECT/CT imaging of 177Lu-labeled ligands; type: in vivo
Description: SPECT/CT imaging experiments were conducted using the MILabs (Utrecht, The Netherlands) U-SPECT-II/CT scanner. Each tumor-bearing mouse (n = 1-2 was injected with ∼37 MBq (50-250 pmol) of ^177Lu-labeled compound through a lateral caudal tail vein. The mice were imaged at 1, 4, 24, 72, and 120 h after injection. At each time point, a 5-min CT scan was conducted first for anatomical reference followed by 2 × 30-min static emission scans acquired in list mode.

LNCaP tumor-bearing mice [3] = details: mouse, in vivo
LNCaP tumor-bearing mice [4] = test: Radioligand therapy study in LNCaP tumor-bearing NRG mice
LNCaP tumor-bearing mice [5] = test: Ex vivo biodistribution of 177Lu-labeled ligands in LNCaP tumor-bearing NRG mice
[6] = 1 h post-injection, listed as [177Lu]Lu-HTK03149

O=C([O-])CN1CCN(CC(=O)[O-])CCN(CC(=O)NCC2CCC(C(=O)NC(Cc3c4ccccc4cc4ccccc34)C(=O)NCCCCC(NC(=O)NC(CCCC(=O)O)C(=O)O)C(=O)O)CC2)CCN(CC(=O)[O-])CC1.[177Lu+3] (centres unmarked) [[^177Lu]Lu-HTK03149]
Kinetics value ([1]; source organ Brain): 2.23E-03 MBq-h/MBq
Kinetics value ([1]; source organ Cortical bone): 7.60E-02 MBq-h/MBq
Kinetics value ([1]; source organ Heart contents): 1.94E-02 MBq-h/MBq
Kinetics value ([1]; source organ Kidneys): 2.41E-01 MBq-h/MBq
Kinetics value ([1]; source organ Large intestine): 9.24E-02 MBq-h/MBq
Kinetics value ([1]; source organ Liver): 3.91E-01 MBq-h/MBq
Kinetics value ([1]; source organ Lungs): 1.72E-02 MBq-h/MBq
Kinetics value ([1]; source organ Pancreas): 1.79E-02 MBq-h/MBq
Kinetics value ([1]; source organ Remainder of the body): 5.31E-01 MBq-h/MBq
Kinetics value ([1]; source organ Small intestine): 2.76E-01 MBq-h/MBq
Kinetics value ([1]; source organ Spleen): 2.30E-02 MBq-h/MBq
Kinetics value ([1]; source organ Stomach): 8.07E-03 MBq-h/MBq
Kinetics value ([1]; source organ Testes): 1.29E-02 MBq-h/MBq
Kinetics value ([1]; source organ Thyroid): 2.03E-03 MBq-h/MBq
Kinetics value ([1]; source organ Urinary bladder contents): 8.14E-01 MBq-h/MBq
Excretion pathway (SPECT imaging) (LNCaP tumor-bearing mice [2]; mouse, in vivo): excreted mainly through the renal pathway; also recorded: excreted mainly via the renal pathway
Tumor size change in SPECT/CT images (LNCaP tumor-bearing mice [2]; ~37 MBq injected): tumors shrank from Day 1 to Day 5
Spleen uptake (LNCaP tumor-bearing mice [3]): 0.142 ± 0.062 %IA/g
Median survival (LNCaP tumor-bearing mice [4]; 9.3 MBq injected): 52 days
Median survival (LNCaP tumor-bearing mice [4]; 18.5 MBq injected): 63 days
Median survival (LNCaP tumor-bearing mice [4]; 37 MBq injected): 88 days
Median survival (LNCaP tumor-bearing mice [4]; 74 MBq injected): 142 days
Median survival (LNCaP tumor-bearing mice [4]; 148 MBq injected): >180 days
Weight loss of treated mice (LNCaP tumor-bearing mice [4]; injected radioactivity as high as 148 MBq): did not observe any weight loss
Adrenal glands uptake (LNCaP tumor-bearing mice [5]; 1 h post-injection): 0.352 ± 0.071 %IA/g
Blood uptake (LNCaP tumor-bearing mice [5]; 1 h post-injection): 0.876 ± 0.073 %IA/g
Blood:Salivary gland uptake ratio (LNCaP tumor-bearing mice [5]; 1 h post-injection): 3.98 ± 0.65
Bone uptake (LNCaP tumor-bearing mice [5]; 1 h post-injection): 0.072 ± 0.020 %IA/g
Brain uptake (LNCaP tumor-bearing mice [5]; 1 h post-injection): 0.022 ± 0.002 %IA/g
Fat uptake (LNCaP tumor-bearing mice [5]; 1 h post-injection): 0.136 ± 0.049 %IA/g
Heart uptake (LNCaP tumor-bearing mice [5]; 1 h post-injection): 0.281 ± 0.036 %IA/g
Intestines uptake (LNCaP tumor-bearing mice [5]; 1 h post-injection): 0.267 ± 0.063 %IA/g
Kidneys uptake (LNCaP tumor-bearing mice [5]; 1 h post-injection): 7.67±1.35 %IA/g
Lacrimal glands uptake (LNCaP tumor-bearing mice [5]; 1 h post-injection): 0.022 ± 0.006 %IA/g
Liver uptake (LNCaP tumor-bearing mice [5]; 1 h post-injection): 0.264 ± 0.031 %IA/g
Lungs uptake (LNCaP tumor-bearing mice [5]; 1 h post-injection): 0.721 ± 0.056 %IA/g
Muscle uptake (LNCaP tumor-bearing mice [5]; 1 h post-injection): 0.182 ± 0.138 %IA/g
Pancreas uptake (LNCaP tumor-bearing mice [5]; 1 h post-injection): 0.165 ± 0.028 %IA/g
Salivary glands uptake (LNCaP tumor-bearing mice [5]; 1 h post-injection): 0.23±0.06 %IA/g
Spleen uptake (LNCaP tumor-bearing mice [5]; 1 h post-injection): 0.260 ± 0.045 %IA/g
Stomach uptake (LNCaP tumor-bearing mice [5]; 1 h post-injection): 0.096 ± 0.020 %IA/g
Testes uptake (LNCaP tumor-bearing mice [5]; 1 h post-injection): 0.255 ± 0.019 %IA/g
Thyroid uptake (LNCaP tumor-bearing mice [5]; 1 h post-injection): 0.269 ± 0.021 %IA/g
Tumor uptake (LNCaP tumor-bearing mice [5]; 1 h post-injection): 13.96 ± 2.155 %IA/g
Tumor:Blood uptake ratio (LNCaP tumor-bearing mice [5]; 1 h post-injection): 16.0 ± 2.44
Tumor:Muscle uptake ratio (LNCaP tumor-bearing mice [5]; 1 h post-injection): 101 ± 48.3
Tumor:Salivary gland uptake ratio (LNCaP tumor-bearing mice [5]; 1 h post-injection): 63.4 ± 13.6
Kidneys uptake (LNCaP tumor-bearing mice [5]; [6]): 7.672 ± 1.346 %IA/g
Salivary glands uptake (LNCaP tumor-bearing mice [5]; [6]): 0.227 ± 0.062 %IA/g
Adrenal glands uptake (LNCaP tumor-bearing mice [5]; 4 h post-injection): 0.085 ± 0.007 %IA/g
Blood uptake (LNCaP tumor-bearing mice [5]; 4 h post-injection): 0.167 ± 0.033 %IA/g
Blood:Salivary gland uptake ratio (LNCaP tumor-bearing mice [5]; 4 h post-injection): 3.32 ± 0.59
Bone uptake (LNCaP tumor-bearing mice [5]; 4 h post-injection): 0.016 ± 0.010 %IA/g
Brain uptake (LNCaP tumor-bearing mice [5]; 4 h post-injection): 0.010 ± 0.001 %IA/g
Fat uptake (LNCaP tumor-bearing mice [5]; 4 h post-injection): 0.021 ± 0.003 %IA/g
Heart uptake (LNCaP tumor-bearing mice [5]; 4 h post-injection): 0.070 ± 0.013 %IA/g
Intestines uptake (LNCaP tumor-bearing mice [5]; 4 h post-injection): 0.185 ± 0.067 %IA/g
Kidneys uptake (LNCaP tumor-bearing mice [5]; 4 h post-injection): 1.67±0.38 %IA/g
Lacrimal glands uptake (LNCaP tumor-bearing mice [5]; 4 h post-injection): 0.029 ± 0.014 %IA/g
Liver uptake (LNCaP tumor-bearing mice [5]; 4 h post-injection): 0.108 ± 0.010 %IA/g
Lungs uptake (LNCaP tumor-bearing mice [5]; 4 h post-injection): 0.169 ± 0.012 %IA/g
Muscle uptake (LNCaP tumor-bearing mice [5]; 4 h post-injection): 0.021 ± 0.005 %IA/g
Pancreas uptake (LNCaP tumor-bearing mice [5]; 4 h post-injection): 0.034 ± 0.004 %IA/g
Salivary glands uptake (LNCaP tumor-bearing mice [5]; 4 h post-injection): 0.05±0.01 %IA/g
Spleen uptake (LNCaP tumor-bearing mice [5]; 4 h post-injection): 0.089 ± 0.020 %IA/g
Stomach uptake (LNCaP tumor-bearing mice [5]; 4 h post-injection): 0.049 ± 0.021 %IA/g
Testes uptake (LNCaP tumor-bearing mice [5]; 4 h post-injection): 0.056 ± 0.005 %IA/g
Thyroid uptake (LNCaP tumor-bearing mice [5]; 4 h post-injection): 0.066 ± 0.008 %IA/g
Tumor uptake (LNCaP tumor-bearing mice [5]; 4 h post-injection): 20.9±2.99 %IA/g
Tumor:Muscle uptake ratio (LNCaP tumor-bearing mice [5]; 4 h post-injection): 1028 ± 227
Tumor:Salivary gland uptake ratio (LNCaP tumor-bearing mice [5]; 4 h post-injection): 415 ± 60.5
